Data taken from patent US20080009418A1, “Selective Inhibitors” (Alchemia LTD., priority 2004, published 2008).

What was measured:
[1] = target: T1, Human μ-opioid (MOP) (Homo sapiens, UniProt P35372); assay: Radioligand binding, human μ-opioid (MOP) membranes, FlashPlate, [3H]-Naloxone; settings: compound at 10 μM; [3H]-Naloxone
T1 construct: purchased Perkin Elmer Biosignal
Summary of the method: (§1)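 Cloned human receptor membranes were coated onto FlashPlate wells and incubated with radioligand and compound (added from a 0.5 mM DMSO daughter plate) for 1 hour at room temperature in the dark. Scintillation counting gave percent inhibition, with DMSO defining total and reference ligand defining non-specific binding.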

[2] = target: T2, Human melanocortin (MC5) (Homo sapiens, UniProt P33032); assay: Radioligand binding, human melanocortin MC5 membranes, FlashPlate, [125I]-NDP-αMSH; settings: compound at 10 μM; [125I]-NDP-αMSH
T2 construct: purchased Perkin Elmer Biosignal
Summary of the method: as §1

[3] = target: T3, Human melanin-concentrating hormone (MCH1) (Homo sapiens, UniProt Q99705); assay: Radioligand binding, human melanin-concentrating hormone MCH1 membranes, FlashPlate, [125I]-S36057; settings: compound at 10 μM; [125I]-S36057
T3 construct: purchased Perkin Elmer Biosignal
Summary of the method: as §1

[4] = target: T4, Human neurokinin (NK1) (Homo sapiens, UniProt P25103); assay: Radioligand binding, human neurokinin NK1 membranes, filtration, [125I]-Substance P; settings: compound at 10 μM; [125I]-Substance P
T4 construct: purchased Perkin Elmer Biosignal
Summary of the method: (§2)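 Membranes from cloned human receptors were incubated with compound and radioligand for 1 hour at room temperature. Bound ligand was collected on 0.3% PEI-soaked filters, washed with cold 50 mM Tris-HCl pH 7.4, and counted by scintillation. Percent inhibition was computed against DMSO totals and reference-ligand nonspecific wells.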

[5] = target: T5, Human δ-opioid (DOP) (Homo sapiens, UniProt P41143); assay: Radioligand binding, human δ-opioid (DOP) membranes, FlashPlate, [3H]-Bremazocine; settings: compound at 10 μM; [3H]-Bremazocine
T5 construct: purchased Perkin Elmer Biosignal
Summary of the method: as §1

[6] = target: T6, Human Melanocortin (MC4) (Homo sapiens, UniProt P32245); assay: Radioligand binding, human melanocortin MC4 membranes, FlashPlate, [125I]-NDP-αMSH; settings: compound at 10 μM; [125I]-NDP-αMSH
T6 construct: purchased Perkin Elmer Biosignal
Summary of the method: as §1

[7] = target: T7, Human κ-Opioid (KOP) (Homo sapiens, UniProt P41145); assay: Radioligand binding, human κ-opioid (KOP) membranes, filtration, [3H]-Diprenorphine; settings: compound at 10 μM; [3H]-Diprenorphine
T7 construct: purchased Perkin Elmer Biosignal
Summary of the method: as §2

[8] = target: T8, Human Melanocortin (MC3) (Homo sapiens, UniProt P41968); assay: Radioligand binding, human melanocortin MC3 membranes, FlashPlate, [125I]-NDP-αMSH; settings: compound at 10 μM; [125I]-NDP-αMSH
T8 construct: purchased Perkin Elmer Biosignal
Summary of the method: as §1

[9] = target: T9, Human opioid (ORL1) (Homo sapiens, UniProt P41146); assay: Radioligand binding, human opioid ORL1 membranes, FlashPlate, [125I]-Nociceptin; settings: compound at 10 μM; [125I]-Nociceptin
T9 construct: purchased Perkin Elmer Biosignal
Summary of the method: as §1

[10] = target: T10, Human neuropeptide Y (NPY-Y1) (Homo sapiens, UniProt P25929); assay: Radioligand binding, human neuropeptide Y NPY-Y1 membranes, FlashPlate, [125I]-PYY; settings: compound at 10 μM; [125I]-PYY
T10 construct: purchased Perkin Elmer Biosignal
T10 sequence (P25929 1-384): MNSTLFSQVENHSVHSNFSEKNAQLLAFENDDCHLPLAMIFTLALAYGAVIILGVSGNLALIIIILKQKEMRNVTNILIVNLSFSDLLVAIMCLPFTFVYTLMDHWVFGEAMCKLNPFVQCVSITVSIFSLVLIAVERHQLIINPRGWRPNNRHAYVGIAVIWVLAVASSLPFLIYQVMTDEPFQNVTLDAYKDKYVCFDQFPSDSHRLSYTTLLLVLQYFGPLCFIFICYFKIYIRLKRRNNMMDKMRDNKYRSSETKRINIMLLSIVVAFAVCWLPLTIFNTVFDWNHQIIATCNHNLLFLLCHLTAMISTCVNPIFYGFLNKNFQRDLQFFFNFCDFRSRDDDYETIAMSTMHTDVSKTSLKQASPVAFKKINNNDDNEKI
Summary of the method: as §1

[11] = target: T11, Mouse urotensin (mUR2) (Mus musculus, UniProt Q8VIH9); assay: Radioligand binding, mouse urotensin mUR2 membranes, FlashPlate, [125I]-Urotensin II; settings: compound at 10 μM; [125I]-Urotensin II
T11 construct: purchased Perkin Elmer Biosignal
T11 sequence (Q8VIH9 1-385): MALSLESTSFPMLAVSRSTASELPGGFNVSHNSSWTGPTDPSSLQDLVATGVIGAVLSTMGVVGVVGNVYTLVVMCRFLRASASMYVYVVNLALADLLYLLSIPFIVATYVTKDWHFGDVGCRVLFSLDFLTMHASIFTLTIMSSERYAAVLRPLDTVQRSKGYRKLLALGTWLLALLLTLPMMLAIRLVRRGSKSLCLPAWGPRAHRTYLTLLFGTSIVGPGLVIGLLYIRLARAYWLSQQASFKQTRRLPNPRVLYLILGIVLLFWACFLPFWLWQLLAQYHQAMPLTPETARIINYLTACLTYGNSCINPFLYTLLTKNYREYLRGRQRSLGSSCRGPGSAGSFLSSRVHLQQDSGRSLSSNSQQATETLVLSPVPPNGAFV
Summary of the method: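 Cloned mouse urotensin (mUR2) receptor membranes from Perkin Elmer Biosignal were immobilized in FlashPlate microplates using a proprietary coating. Each well got 19.5 μl buffer, then 0.5 μl of DMSO, reference ligand, or compound. Adding 5 μl of [125I]-Urotensin II, diluted to 5× final concentration in binding buffer, started binding. Plates were sealed with TopSeal-A and incubated 1 hour at room temperature in the dark. Wells were counted for 30 seconds each on a TopCount after a 60-second delay, and percentage inhibition was calculated.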

T9 sequence (P41146 whole entry): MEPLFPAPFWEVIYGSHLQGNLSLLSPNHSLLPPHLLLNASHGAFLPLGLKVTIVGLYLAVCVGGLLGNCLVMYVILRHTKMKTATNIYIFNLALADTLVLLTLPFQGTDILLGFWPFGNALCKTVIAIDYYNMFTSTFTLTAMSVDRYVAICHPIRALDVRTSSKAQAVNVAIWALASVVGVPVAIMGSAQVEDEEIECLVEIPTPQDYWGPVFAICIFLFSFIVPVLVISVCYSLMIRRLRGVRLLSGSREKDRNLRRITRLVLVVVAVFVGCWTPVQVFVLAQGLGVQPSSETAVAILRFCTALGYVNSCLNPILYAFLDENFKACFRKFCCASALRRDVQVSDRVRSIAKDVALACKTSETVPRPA
T3 sequence (Q99705 whole entry): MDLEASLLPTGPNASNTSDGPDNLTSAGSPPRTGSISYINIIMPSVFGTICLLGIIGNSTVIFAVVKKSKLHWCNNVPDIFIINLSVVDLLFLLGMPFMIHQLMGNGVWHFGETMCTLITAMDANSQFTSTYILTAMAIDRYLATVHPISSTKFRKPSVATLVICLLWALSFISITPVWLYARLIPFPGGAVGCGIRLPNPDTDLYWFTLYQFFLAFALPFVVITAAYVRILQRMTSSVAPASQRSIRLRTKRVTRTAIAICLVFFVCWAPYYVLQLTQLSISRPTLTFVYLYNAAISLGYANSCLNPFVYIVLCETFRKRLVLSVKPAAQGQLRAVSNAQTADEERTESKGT
T6 sequence (P32245 whole entry): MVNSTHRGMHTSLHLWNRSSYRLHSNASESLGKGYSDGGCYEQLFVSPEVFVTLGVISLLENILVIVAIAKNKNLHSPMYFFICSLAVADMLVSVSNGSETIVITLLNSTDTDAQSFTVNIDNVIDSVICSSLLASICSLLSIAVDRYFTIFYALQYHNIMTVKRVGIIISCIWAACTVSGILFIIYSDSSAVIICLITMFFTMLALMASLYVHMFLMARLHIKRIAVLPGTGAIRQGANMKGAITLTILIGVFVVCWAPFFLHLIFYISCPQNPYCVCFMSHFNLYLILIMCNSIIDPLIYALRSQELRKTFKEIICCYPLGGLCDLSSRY
T5 sequence (P41143 whole entry): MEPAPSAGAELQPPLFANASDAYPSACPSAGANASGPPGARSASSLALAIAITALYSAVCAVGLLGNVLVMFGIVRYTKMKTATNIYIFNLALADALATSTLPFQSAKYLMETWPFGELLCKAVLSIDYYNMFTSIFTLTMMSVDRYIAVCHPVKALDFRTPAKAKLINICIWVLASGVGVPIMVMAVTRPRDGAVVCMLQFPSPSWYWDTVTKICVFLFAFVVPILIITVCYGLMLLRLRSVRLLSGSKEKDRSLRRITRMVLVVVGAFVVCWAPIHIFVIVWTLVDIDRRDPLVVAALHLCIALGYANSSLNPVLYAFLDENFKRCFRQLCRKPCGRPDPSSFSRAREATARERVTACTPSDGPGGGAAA
T1 sequence (P35372 whole entry): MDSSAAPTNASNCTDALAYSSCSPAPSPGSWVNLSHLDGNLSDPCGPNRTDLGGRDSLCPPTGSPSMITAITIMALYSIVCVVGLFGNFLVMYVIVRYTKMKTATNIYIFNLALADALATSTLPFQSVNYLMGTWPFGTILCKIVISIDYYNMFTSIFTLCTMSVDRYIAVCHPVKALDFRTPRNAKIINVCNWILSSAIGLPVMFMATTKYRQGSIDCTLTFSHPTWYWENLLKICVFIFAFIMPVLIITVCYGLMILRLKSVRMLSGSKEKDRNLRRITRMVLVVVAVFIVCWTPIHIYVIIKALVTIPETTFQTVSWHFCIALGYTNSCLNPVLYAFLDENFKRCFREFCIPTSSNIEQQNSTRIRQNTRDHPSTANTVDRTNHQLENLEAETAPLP
T7 sequence (P41145 whole entry): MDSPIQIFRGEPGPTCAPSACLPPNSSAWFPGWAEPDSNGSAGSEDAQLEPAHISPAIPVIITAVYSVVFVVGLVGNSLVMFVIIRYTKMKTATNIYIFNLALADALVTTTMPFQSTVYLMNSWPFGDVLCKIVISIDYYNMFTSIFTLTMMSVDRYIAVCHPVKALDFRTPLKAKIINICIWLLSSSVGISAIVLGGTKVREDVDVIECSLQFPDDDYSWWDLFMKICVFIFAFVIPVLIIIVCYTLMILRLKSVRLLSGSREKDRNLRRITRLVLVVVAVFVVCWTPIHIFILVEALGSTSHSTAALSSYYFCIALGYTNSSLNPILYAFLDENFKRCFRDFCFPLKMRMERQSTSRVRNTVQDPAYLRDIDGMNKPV
T2 sequence (P33032 whole entry): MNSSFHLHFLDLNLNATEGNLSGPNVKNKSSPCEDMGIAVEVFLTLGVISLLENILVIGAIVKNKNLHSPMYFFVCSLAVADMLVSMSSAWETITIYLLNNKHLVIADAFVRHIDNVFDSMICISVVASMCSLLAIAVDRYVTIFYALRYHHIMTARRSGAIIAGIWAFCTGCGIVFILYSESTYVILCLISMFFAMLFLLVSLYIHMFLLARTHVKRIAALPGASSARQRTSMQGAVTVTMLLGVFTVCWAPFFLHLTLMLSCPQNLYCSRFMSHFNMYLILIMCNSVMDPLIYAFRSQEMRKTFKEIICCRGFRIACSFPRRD
T4 sequence (P25103 whole entry): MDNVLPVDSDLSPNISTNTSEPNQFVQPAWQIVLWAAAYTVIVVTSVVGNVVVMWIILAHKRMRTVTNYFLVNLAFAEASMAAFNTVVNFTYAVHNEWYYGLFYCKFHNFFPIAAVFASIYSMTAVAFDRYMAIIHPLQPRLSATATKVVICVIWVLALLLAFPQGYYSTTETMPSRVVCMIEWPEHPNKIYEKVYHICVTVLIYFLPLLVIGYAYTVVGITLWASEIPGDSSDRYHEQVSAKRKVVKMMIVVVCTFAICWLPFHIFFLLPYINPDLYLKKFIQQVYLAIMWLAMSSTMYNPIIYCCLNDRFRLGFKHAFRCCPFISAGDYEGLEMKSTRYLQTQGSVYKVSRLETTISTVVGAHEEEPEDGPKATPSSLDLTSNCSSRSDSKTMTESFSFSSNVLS
T8 sequence (P41968 whole entry): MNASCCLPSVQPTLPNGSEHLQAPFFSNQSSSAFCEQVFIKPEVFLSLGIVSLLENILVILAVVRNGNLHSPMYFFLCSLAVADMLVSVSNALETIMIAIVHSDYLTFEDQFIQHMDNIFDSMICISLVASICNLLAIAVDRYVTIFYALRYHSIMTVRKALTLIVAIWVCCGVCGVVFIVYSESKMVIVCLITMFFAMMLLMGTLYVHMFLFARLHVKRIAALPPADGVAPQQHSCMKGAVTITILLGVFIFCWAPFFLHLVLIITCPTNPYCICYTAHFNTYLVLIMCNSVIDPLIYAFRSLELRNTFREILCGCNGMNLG

SMILES | A7 radioligand binding, percentage inhibition [1] | A5 radioligand binding, percentage inhibition [2] | A6 radioligand binding, percentage inhibition [3] | A8 radioligand binding, percentage inhibition [4] | A1 radioligand binding, percentage inhibition [5] | A4 radioligand binding, percentage inhibition [6] | A2 radioligand binding, percentage inhibition [7] | A3 radioligand binding, percentage inhibition [8] | A10 radioligand binding, percentage inhibition [9] | A9 radioligand binding, percentage inhibition [10] | A11 radioligand binding, percentage inhibition [11] | other results
N=C(N)NCCC(=O)N[C@H]1C(OCc2ccc(Cl)cc2)O[C@H](COCc2ccccc2)[C@@H](O)[C@@H]1OCc1ccc2ccccc2c1 (stereo partly drawn) [compound 530] |  |  |  |  |  |  |  |  |  |  |  | A7: inhibition of radioligand binding, human μ-opioid (MOP) [1]: + (“+” indicates greater than 50% inhibition at 10 μM); A5: inhibition of radioligand binding, human melanocortin (MC5) [2]: + (“+” indicates greater than 50% inhibition at 10 μM); A6: inhibition of radioligand binding, human melanin-concentrating hormone (MCH1) [3]: + (“+” indicates greater than 50% inhibition at 10 μM); A8: inhibition of radioligand binding, human neurokinin (NK1) [4]: + (“+” indicates greater than 50% inhibition at 10 μM); A1: inhibition of radioligand binding, human δ-opioid (DOP) [5]: − (“−” indicates less than 50% inhibition at 10 μM); A4: inhibition of radioligand binding, human melanocortin (MC4) [6]: + (“+” indicates greater than 50% inhibition at 10 μM); A2: inhibition of radioligand binding, human κ-opioid (KOP) [7]: + (“+” indicates greater than 50% inhibition at 10 μM); A3: inhibition of radioligand binding, human melanocortin (MC3) [8]: + (“+” indicates greater than 50% inhibition at 10 μM); A10: inhibition of radioligand binding, human opioid (ORL1) [9]: + (“+” indicates greater than 50% inhibition at 10 μM); A9: inhibition of radioligand binding, human neuropeptide Y (NPY-Y1) [10]: − (“−” indicates less than 50% inhibition at 10 μM); A11: inhibition of radioligand binding, mouse urotensin (mUR2) [11]: − (“−” indicates less than 50% inhibition at 10 μM)
CO[C@H]1[C@H](O)[C@@H](COCc2ccc(-c3ccccc3)cc2)OC(OCc2ccc(Cl)cc2)[C@@H]1NC(=O)CCNC(=N)N (stereo partly drawn) [compound 94] | − (“−” indicates less than 50% inhibition at 10 μM) | + (“+” indicates greater than 50% inhibition at 10 μM) | + (“+” indicates greater than 50% inhibition at 10 μM) | + (“+” indicates greater than 50% inhibition at 10 μM) | − (“−” indicates less than 50% inhibition at 10 μM) | + (“+” indicates greater than 50% inhibition at 10 μM) | − (“−” indicates less than 50% inhibition at 10 μM) | + (“+” indicates greater than 50% inhibition at 10 μM) | + (“+” indicates greater than 50% inhibition at 10 μM) | + (“+” indicates greater than 50% inhibition at 10 μM) | − (“−” indicates less than 50% inhibition at 10 μM) | 
CO[C@H]1[C@H](O)[C@@H](COCc2cccc(O)c2)OC(OCc2ccc(Cl)cc2)[C@@H]1NC(=O)CNC(=N)N (stereo partly drawn) [compound 155] | − (“−” indicates less than 50% inhibition at 10 μM) | + (“+” indicates greater than 50% inhibition at 10 μM) | − (“−” indicates less than 50% inhibition at 10 μM) | − (“−” indicates less than 50% inhibition at 10 μM) | − (“−” indicates less than 50% inhibition at 10 μM) | − (“−” indicates less than 50% inhibition at 10 μM) | − (“−” indicates less than 50% inhibition at 10 μM) | − (“−” indicates less than 50% inhibition at 10 μM) | − (“−” indicates less than 50% inhibition at 10 μM) | − (“−” indicates less than 50% inhibition at 10 μM) | − (“−” indicates less than 50% inhibition at 10 μM) | 
